Data on 25 compounds can be found in patent US11634396B2 (priority 2021, dated 2023).

For orientation: pIC50 means −log10 of the IC50, conventionally taken in molar units.

For assay [1], the target named is human mOR (Homo sapiens (Human), UniProt P35372). Description: cell-based.
Assay [2] has as its target kOR (OPRK1) (Homo sapiens (Human), UniProt P41145). The assay is described as follows: KOR β-Arrestin antagonist assay (Tango OPRK1-bla U2OS cells). The format is cell-based. The text has this: KOR β-Arrestin Agonist and Antagonist assays were preformed using the Tango™ OPRK1-bla U2OS cells from Invitrogen and purchased from ThermoFisher, catalog number K1576.
[3] abbreviates: CHO Tag-lite human mOR stable cell line, forskolin 4 μM and DAMGO at EC90, read-out: mOR cAMP Antagonist Assay IC50.

pIC50: −log10 of the molar value. Read-outs that look alike come from different tables or passages of the source. Some results are limits rather than exact numbers.

human mOR, sequence (P35372 whole entry): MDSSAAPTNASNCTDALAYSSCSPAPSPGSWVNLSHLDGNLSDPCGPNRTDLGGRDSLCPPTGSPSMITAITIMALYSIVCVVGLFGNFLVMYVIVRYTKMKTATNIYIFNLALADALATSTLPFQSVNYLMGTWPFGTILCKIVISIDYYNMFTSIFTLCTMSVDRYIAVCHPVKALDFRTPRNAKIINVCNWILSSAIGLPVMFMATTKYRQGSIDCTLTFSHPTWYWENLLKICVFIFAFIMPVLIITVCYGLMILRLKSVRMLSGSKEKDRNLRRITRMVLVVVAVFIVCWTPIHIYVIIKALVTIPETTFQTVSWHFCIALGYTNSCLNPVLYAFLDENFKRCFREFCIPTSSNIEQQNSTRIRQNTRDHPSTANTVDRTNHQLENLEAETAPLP
kOR (OPRK1), sequence (P41145 whole entry): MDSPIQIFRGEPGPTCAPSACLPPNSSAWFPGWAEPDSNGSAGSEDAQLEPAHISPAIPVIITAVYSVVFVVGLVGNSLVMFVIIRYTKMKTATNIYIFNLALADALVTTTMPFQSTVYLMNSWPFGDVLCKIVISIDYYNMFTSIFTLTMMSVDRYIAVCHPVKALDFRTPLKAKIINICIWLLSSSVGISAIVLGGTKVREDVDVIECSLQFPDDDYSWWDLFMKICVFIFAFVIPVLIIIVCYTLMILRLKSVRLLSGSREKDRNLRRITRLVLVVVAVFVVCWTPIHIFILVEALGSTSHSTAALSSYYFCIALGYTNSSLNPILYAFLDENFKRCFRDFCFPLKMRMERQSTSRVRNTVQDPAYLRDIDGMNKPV

As for `Cc1ncc([C@@H](CC(=O)NC[C@H](Cc2ccc(C(N)=O)cc2Cl)N(C)C)C2(C(F)(F)F)CC2)cn1` [Compound 24, 3-chloro-4-[(2S)-2-(dimethylamino)-3-[(3R)-3-(2-methylpyrimidin-5-yl)-3-[1-(trifluoromethyl)cyclopropyl]propanamido]propyl]benzamide], the pIC50 in assay [1] and in assay [2] was more than 6.52 throughout.
Take `Cc1ncc([C@@H](CC(=O)NC[C@H](Cc2ccc(C(N)=O)cc2Cl)N(C)C)C2CC2)cn1` [Compound 25, 3-chloro-4-[(2S)-3-[(3S)-3-cyclopropyl-3-(2-methylpyrimidin-5-yl)propanamido]-2-(dimethylamino)propyl]benzamide]: the pIC50 in assay [1] was more than 6.52; in assay [2], 5.52 to 6.52.
As to `CN(C)[C@H](CNC(=O)C[C@H](c1cccnc1)C1(C(F)(F)F)CC1)Cc1ccc(C(N)=O)cc1Cl` [Compound 28, 3-chloro-4-((S)-2-(dimethylamino)-3-((R)-3-(pyridin-3-yl)-3-(1-(trifluoromethyl)cyclopropyl)propanamido)propyl)benzamide], the pIC50 in assay [1] and in assay [2] was more than 6.52 each time.
Take `CN(C)[C@H](CNC(=O)CC(c1ccc(C(F)(F)F)nc1)C1(C(F)(F)F)CC1)Cc1ccc(C(N)=O)cc1Cl` (stereo partly drawn) [Compound 32, 3-chloro-4-[(2S)-2-(dimethylamino)-3-{3-[1-(trifluoromethyl)cyclopropyl]-3-[6-(trifluoromethyl)pyridin-3-yl]propanamido}propyl]benzamide]: the pIC50 in assay [1] (setting [3]) and in assay [2] was more than 6.52 each time.
`COc1ncc(C(CC(=O)NC[C@H](Cc2ccc(C(N)=O)cc2Cl)N(C)C)C2(C(F)(F)F)CC2)cn1` (stereo partly drawn) [Compound 33, 3-chloro-4-[(2S)-2-(dimethylamino)-3-[3-(2-methoxypyrimidin-5-yl)-3-[1-(trifluoromethyl)hydropropyl]propanamido]propyl]benzamide]: the pIC50 in assay [1] and in assay [2] was more than 6.52 in each case.
For the compound `Cc1ncc(C(CC(=O)NC[C@H](Cc2ccc(C(N)=O)cc2Cl)N(C)C)C2(C(F)(F)F)CC2)cn1` (stereo partly drawn) [Compound 34, 3-chloro-4-[(2S)-2-(dimethylamino)-3-[3-(2-methylpyrimidin-5-yl)-3-[1-(trifluoromethyl)cyclopropyl]propanamido]propyl]benzamide], the pIC50 in assay [1] and in assay [2] was more than 6.52 each time.
As for `COc1ccc(C(CC(=O)NC[C@H](Cc2ccc(C(N)=O)cc2Cl)N(C)C)C2(C(F)(F)F)CC2)cn1` (stereo partly drawn) [Compound 35, 3-chloro-4-[(2S)-2-(dimethylamino)-3-[3-(6-methoxypyridin-3-yl)-3-[1-(trifluoromethyl)cyclopropyl]propanamido]propyl]benzamide], the pIC50 in assay [1] and in assay [2] was more than 6.52 throughout.
Take `CN(C)[C@H](CNC(=O)CC(c1cncc(F)c1)C1(C(F)(F)F)CC1)Cc1ccc(C(N)=O)cc1Cl` (stereo partly drawn) [Compound 36, 3-chloro-4-[(2S)-2-(dimethylamino)-3-[3-(5-fluoropyridin-3-yl)-3-[1-(trifluoromethyl)cyclopropyl]propanamido]propyl]benzamide]: the pIC50 in assay [1] (setting [3]) and in assay [2] was more than 6.52 throughout.
As for `CN(C)[C@H](CNC(=O)CC(c1ccc(Cl)cn1)C1(C(F)(F)F)CC1)Cc1ccc(C(N)=O)cc1Cl` (stereo partly drawn) [Compound 37, 3-chloro-4-[(2S)-3-[3-(5-chloropyridin-2-yl)-3-[1-(trifluoromethyl)cyclopropyl]propanamido]-2-(dimethylamino)propyl]benzamide], the pIC50 in assay [1] and in assay [2] was more than 6.52 throughout.
In the case of `CN(C)[C@H](CNC(=O)CC(c1cccnc1)C1(C(F)(F)F)CC1)Cc1ccc(C(N)=O)cc1Cl` (stereo partly drawn) [Compound 38, 3-chloro-4-[(2S)-2-(dimethylamino)-3-[3-(pyridin-3-yl)-3-[1-(trifluoromethyl)cyclopropyl]propanamido]propyl]benzamide], the pIC50 in assay [1] and in assay [2] was more than 6.52 in each case.
As to `CN(C)[C@H](CNC(=O)C[C@@H](c1cccnc1)C1(C(F)(F)F)CC1)Cc1ccc(C(N)=O)cc1Cl` [Compound 41, 3-chloro-4-((S)-2-(dimethylamino)-3-((S)-3-(pyridin-3-yl)-3-(1-(trifluoromethyl)cyclopropyl)propanamido)propyl)benzamide], the pIC50 in assay [1] and in assay [2] was more than 6.52 each time.
Consider `COc1ccc(C(CC(=O)NC[C@H](Cc2cc(F)c(C(N)=O)c(F)c2)N(C)C)C2(C(F)(F)F)CC2)cn1` (stereo partly drawn) [Compound 49, 4-[(2S)-2-(dimethylamino)-3-[3-(6-methoxypyridin-3-yl)-3-[1-(trifluoromethyl)cyclopropyl]propanamido]propyl]-2,6-difluorobenzamide], for which the pIC50 is less than 5.52 in assay [1] and more than 6.52 in assay [2].
For `Cc1ncc([C@@H](CC(=O)NC[C@H](Cc2ccc(C(N)=O)c(F)c2)N2CCCC2)C2(C(F)(F)F)CC2)cn1` [Compound 65, 2-fluoro-4-((S)-3-((R)-3-(2-methylpyrimidin-5-yl)-3-(1-(trifluoromethyl)cyclopropyl)propanamido)-2-(pyrrolidin-1-yl)propyl)benzamide], the figures for the pIC50 in assay [1] and in assay [2] were less than 5.52 and 5.52 to 6.52, respectively.
In the case of `CN(C)[C@H](CNC(=O)C[C@@H](CC1CC1)c1cccnc1)Cc1ccc(C(N)=O)c(F)c1` [Compound 66, 4-((S)-3-((R)-4-cyclopropyl-3-(pyridin-3-yl)butanamido)-2-(dimethylamino)propyl)-2-fluorobenzamide], the pIC50 in assay [1] and in assay [2] was more than 6.52 each time.
With `CN(C)[C@H](CNC(=O)CC(c1cncnc1)C1(C(F)(F)F)CC1)Cc1ccc(C(N)=O)c(F)c1` (stereo partly drawn) [Compound 72, 4-[(2S)-2-(dimethylamino)-3-[3-(pyrimidin-5-yl)-3-[1-(trifluoromethyl)cyclopropyl]propanamido]propyl]-2-fluorobenzamide], the pIC50 in assay [1] (setting [3]) and in assay [2] was more than 6.52 throughout.
Regarding `CN(C)[C@H](CNC(=O)CC(c1ncc(Cl)cn1)C1(C(F)(F)F)CC1)Cc1ccc(C(N)=O)c(F)c1` (stereo partly drawn) [Compound 73, 4-[(2S)-3-[3-(5-chloropyrimidin-2-yl)-3-[1-(trifluoromethyl)cyclopropyl]propanamido]-2-(dimethylamino)propyl]-2-fluorobenzamide], the pIC50 in assay [1] and in assay [2] was more than 6.52 in each case.
For `CN(C)[C@H](CNC(=O)CC(c1cccnc1)C1(C(F)(F)F)CC1)Cc1ccc(C(N)=O)c(F)c1` (stereo partly drawn) [Compound 74, 4-[(2S)-2-(dimethylamino)-3-[3-(pyridin-3-yl)-3-[1-(trifluoromethyl)cyclopropyl]propanamido]propyl]-2-fluorobenzamide], the results for the pIC50 in assay [1] and in assay [2] were less than 5.52 and more than 6.52, respectively.
On the same counts, the results for `Cc1ccc([C@@H](CC(=O)NC[C@H](Cc2ccc(C(N)=O)c(F)c2)N(C)C)C2(C(F)(F)F)CC2)cn1` [Compound 75, 4-[(2S)-2-(dimethylamino)-3-[(3R)-3-(6-methylpyridin-3-yl)-3-[1-(trifluoromethyl)cyclopropyl]propanamido]propyl]-2-fluorobenzamide] are more than 6.52 and more than 6.52.
Turning to `CN(C)[C@H](CNC(=O)CC(c1cncc(F)c1)C1(C(F)(F)F)CC1)Cc1ccc(C(N)=O)c(F)c1` (stereo partly drawn) [Compound 76, 4-[(2S)-2-(dimethylamino)-3-[3-(5-fluoropyridin-3-yl)-3-[1-(trifluoromethyl)cyclopropyl]propanamido]propyl]-2-fluorobenzamide], the pIC50 in assay [1] was less than 5.52; in assay [2], more than 6.52.
In the case of `CN(C)[C@H](CNC(=O)C[C@H](c1ccccn1)C1(C(F)(F)F)CC1)Cc1ccc(C(N)=O)cc1` [Compound 81, 4-((S)-2-(dimethylamino)-3-((S)-3-(pyridin-2-yl)-3-(1-(trifluoromethyl)cyclopropyl)propanamido)propyl)benzamide], the pIC50 in assay [1] and in assay [2] was more than 6.52 each time.
For the compound `CN(C)[C@H](CNC(=O)C[C@@H](c1ccccn1)C1(C(F)(F)F)CC1)Cc1ccc(C(N)=O)cc1` [Compound 84, 4-[(2S)-2-(dimethylamino)-3-[(3R)-3-(pyridin-2-yl)-3-[1-(trifluoromethyl)cyclopropyl]propanamido]propyl]benzamide], the pIC50 in assay [1] and in assay [2] was more than 6.52 each time.
Regarding `CN[C@H](CNC(=O)C[C@H](c1ccccc1)C1(C(F)(F)F)CC1)Cc1ccc(C(N)=O)cc1` [Compound 85, 4-[(2S)-2-(methylamino)-3-[(3R)-3-phenyl-3-[1-(trifluoromethyl)cyclopropyl]propanamido]propyl]benzamide], the pIC50 in assay [1] and in assay [2] was more than 6.52 each time.
In the case of `CNC(=O)c1ccc(C[C@@H](CNC(=O)CC(c2ccccn2)C2(C(F)(F)F)CC2)N(C)C)c(C)c1` (stereo partly drawn) [Compound 141, 4-((2S)-2-(dimethylamino)-3-(3-(pyridin-2-yl)-3-(1-(trifluoromethyl)cyclopropyl)propanamido)propyl)-N,3-dimethylbenzamide], the pIC50 in assay [1] and in assay [2] was more than 6.52 in each case.
With `CN(C)[C@H](CNC(=O)C[C@H](c1cccnc1)C1(C(F)(F)F)CC1)Cc1ccc(O)cc1C(F)(F)F` [Compound 255, (R)-N-((S)-2-(dimethylamino)-3-(4-hydroxy-2-(trifluoromethyl)phenyl)propyl)-3-(pyridin-3-yl)-3-(1-(trifluoromethyl)cyclopropyl) propanamide], the figures for the pIC50 in assay [1] and in assay [2] were more than 6.52 and less than 5.52, respectively.
With `COc1ccc(C(CC(=O)NC[C@H](Cc2ccc(O)cc2C)N(C)C)C2(C(F)(F)F)CC2)cn1` (stereo partly drawn) [Compound 273, N-((S)-2-(dimethylamino)-3-(4-hydroxy-2-methylphenyl)propyl)-3-(6-methoxypyridin-3-yl)-3-(1-(trifluoromethyl)cyclopropyl) propanamide], the pIC50 in assay [1] and in assay [2] was more than 6.52 throughout.
